Laboratory results: patent US7153886B2, “Method for treatment of peripheral inflammation of a loop ileal artificial anus” (Tanabe Seiyaku Co., Ltd., priority 1999, dated 2006)
Entries after “also recorded” stand apart in the source; their conditions may differ. Where a name gives a salt, the structure may show the parent alone.

What was measured:
[1] = test system: intestinal mucosal injury induced by intra-intestinal infusion of acetic acid; experiment: Prophylactic or therapeutic effect on acetic acid-induced intestinal injury; type: in vivo; conditions: Fischer rats
Text: Sulfodehydroabietic acid monosodium salt […] (hereinafter referred to as Ecabet sodium) of the active ingredient of the present invention was previously administered to Fischer rats, and the prophylactic or therapeutic effect thereof on intestinal mucosal injury induced by intra-intestinal infusion of acetic acid was studied. Namely, granules containing Ecabet sodium (0.5 g, trade name: Gastrome granule, containing 1.0 g of Ecabet sodium per 1.5 g, hereinafter simply referred to as Ecabet sodium-containing granules) were suspended in a physiological saline, and the mixture was injected intra-rectally to Fischer rats. One hour thereafter, a 25% acetic acid solution was intra-rectally injected to the rats. Two hours after the administration of acetic acid, the intestine was excised from the rats, and the histopathological changes in the surface of the intestinal inner wall was observed visually and with a microscope, and the injury of the intestinal mucosa was evaluated both macroscopically and histologically. In the control group, the same procedures were repeated except for that a physiological saline was administered instead of a suspension of Ecabet sodium-containing granules in a physiological saline. […] In addition, the degree of the intestine mucosal injury between the physiological saline-treated group and the Ecabet sodium-treated group was scored and compared according to the criteria as mentioned below, which was based on the method for Classification and Evaluation of Macpherson, B. R. et al., Digestion, 17, p. 135–150 (1978). The data is indicated in Table 1. • (1) Scoring criteria of degree of macroscopic injury: [table] • (2) Scoring criteria of degree of histological injury: [table]

[2] = test system: TNBS-induced enteritis; mucosal injury of the intestine induced by acetic acid; experiment: Effect on TNBS-induced enteritis (followed by acetic acid); type: in vivo, Fischer rats
Method: Ecabet sodium of the active ingredient of the present invention was administered to Fischer rats to which TNBS was previously intra-intestinally injected to induce chronic enteritis, and further acetic acid was administered to the rats. Prophylactic or therapeutic effect of Ecabet sodium on the mucosal injury of the intestine induced by acetic acid was studied.
Namely, a solution of TNBS (2,4,6-trinitrobenzenesulfonic acid) in 50% ethanol was injected intra-intestinally to Fischer rats at a dose of 50 mg per 1 kg of the body weight to give the TNBS-induced enteritis. Three weeks thereafter, Ecabet sodium-containing granules (0.5 g) was suspended in a physiological saline, and the mixture was administered intra-rectally to the rats. Thirty minutes thereafter, a 25% acetic acid solution was intra-rectally injected to the rats, and two hours after the acetic acid administration, the intestine was excised from the rats, and the intestinal mucosal injury thereof was scored and evaluated both macroscopically and histologically in the same manner as in Experiment 1 according to the Macpherson's method for Classification and Evaluation. In the control group, the same procedures were repeated except for that a physiological saline was administered instead of a suspension of Ecabet sodium-containing granules in a physiological saline.

[3] = test system: intestinal Behçet's disease; experiment: Clinical effects in a patient of Behçet's disease; type: in vivo, human patient; conditions: person
Text: The patient was a person, whose illness had been diagnosed as intestinal Behçet's disease accompanying with the multiple ulcerative lesion at the small intestine, and who had been medically treated (i.e., administration of a steroid, etc.). Then, the patient was operated surgically twice to excise the intestine on account of massive melena and regional peritonitis but the lesion of the remaining intestine was exacerbated, and further ileus, melena, and peritonitis symptoms caused by anastomotic recrudescence appeared. In order to excise the injured intestine, the abdomen of the patient was incised, but the injured area was so large that the intestine could not be excised, so that a loop ileal artificial anus was installed for administration of Ecabet sodium.
Ecabet sodium was administered to the patient mentioned above. That is, Ecabet sodium-containing granules (1.5 g) were orally administered twice a day. Further, said granules (1.5 g) were pulverized in a mortar, suspended in water, and the resultant was directly administered into the intestine through the artificial anus twice a day. After the administration of Ecabet sodium, the pain and the melena disappeared in a several days.

[4] = test system: large and small intestine Crohn's disease; experiment: Clinical effects in a patient of Crohn's disease; type: in vivo, human patient; conditions: person; one year after the start of the administration
Method: The patient was a person, whose illness was diagnosed from the pathological data as large and small intestine Crohn's disease. The exacerbation and the remission were mutually repeated, and the patient was treated with a conventional medicine, but the exacerbation of the anal lesion and the bleeding at the intestine could not be controlled. Although a surgical excision of the lesion was considered, the area of the lesion was so large that it could not be excised, and therefore, a loop ileal artificial anus was installed for administration of Ecabet sodium. Ecabet sodium was administered to the patient mentioned above. That is, Ecabet sodium-containing granules (1.5 g) were pulverized in a mortar, suspended in water, and the resultant was directly administered into the intestine through the artificial anus once a day.

[5] = test system: left-sided colon ulcerative colitis; experiment: Clinical effects in ulcerative colitis (Experiments 5-7); type: in vivo, human patient
Method: The patient was a person, whose illness was diagnosed as left-sided colon ulcerative colitis. The patient was medicated with mesalazine and a steroid, and treated with leukocytapheresis, but the rectal lesion was remained, and the symptoms were not improved any further. The inflammation was scored as Matts Grade 3 (Quarterly Journal of Medicine, New Series, No. 120, October 1961), and it was so frail that it bled when the endoscopic examination was carried out.
(§1) Ecabet sodium was administered to the patient mentioned above. That is, Ecabet sodium-containing granules (1.5 g) were pulverized in a mortar, suspended in a physiological saline (20 ml), and the resultant was rectally administered through the anus twice a day. After the administration, the inflammation was remitted to Matts Grade 2, and the inflammation area was decreased.
The patient was a person, whose illness was diagnosed as left-sided colon ulcerative colitis. The patient was medicated with mesalazine, predonine and a steroid, by which the inflammation was controlled to a degree of disseminated ulcer at the rectum, but further improvement was not obtained.
as §1, with “ulcer” for “inflammation”, “improved into a red scar.” for “remitted to Matts Grade 2, and the inflammation area was decreased.”
The patient was a person, whose illness was diagnosed as left-sided colon ulcerative colitis. The patient was medicated with salazosulfapyridine and predonine, and treated with leukocytapheresis, but the inflammation condition at the rectum could not be controlled, and the bleeding and the melena lasted.
Ecabet sodium was administered to the patient mentioned above. That is, Ecabet sodium-containing granules (1.5 g) were pulverized in a mortar, suspended in a physiological saline (20 ml), and the resultant was rectally administered through the anus twice a day.

[6] = test system: acute hemorrhagic rectal ulcer; experiment: Clinical effects in acute hemorrhagic rectal ulcer (Experiments 8-10); type: in vivo, human patient
Method: The patient was a person, who was hospitalized for treatment of HCV-associated hepatocirrhosis, hepatocellular carcinoma and esophageal varices. After the endoscopic ossification treatment for the esophageal varices was done, an acute hemorrhagic rectal ulcer appeared at whole of the lower rectum. The patient was treated with total parenteral nutrition for 52 days, but the conditions were not improved. Ecabet sodium was administered to the patient mentioned above. That is, Ecabet sodium-containing granules (1.5 g) were suspended in water, and the resultant was injected through the anus twice a day for about 1.5 month. […] The patient was a person, who was hospitalized for treatment of the right thighbone break. During the treatment thereof, an acute hemorrhagic rectal ulcer occurred at whole of the lower rectum. The patient was treated with total parenteral nutrition, but the conditions were not improved. Ecabet sodium was administered to the patient mentioned above. That is, Ecabet sodium-containing granules (1.5 g) were suspended in water, and the resultant was injected through the anus twice a day for about 2.5 months. […] The patient was a person, who was hospitalized for treatment of pancreatic cancer. During the treatment, an acute hemorrhagic rectal ulcer appeared at whole of the lower rectum. Ecabet sodium was administered to the patient mentioned above. That is, Ecabet sodium-containing granules (1.5 g) were suspended in water, and the resultant was injected through the anus twice a day for about 1 month.

[7] = test system: ileum pouchitis accompanying with acute hemorrhagic ulcer; experiment: Clinical effects in ileum pouchitis; type: in vivo, human patient; conditions: Experiment 11, person; granules 1.5 g in water through the anus twice a day for about 4 months
Method: The patient was a person. During the postoperative treatment, ileum pouchitis accompanying with acute hemorrhagic ulcer appeared at the ileum pouch which was subjected to ileal pouch/anal anastomosis by the operation for ulcerative colitis. Ecabet sodium was administered to the patient mentioned above. That is, Ecabet sodium-containing granules (1.5 g) were suspended in water, and the resultant was injected through the anus twice a day for about 4 months.

[8] = compared with the disodium salt; cited from earlier work
[9] = Ecabet sodium-containing granules 0.5 g in saline intra-rectally 1 h before 25% acetic acid, intestine excised 2 h after acetic acid, mean ± s.e. of sum of scores (0-3) of 4 items
[10] = Fischer rats 3 weeks after TNBS 50 mg/kg, granules 0.5 g intra-rectally 30 min before 25% acetic acid, 2 h after acetic acid, P < 0.05 vs saline

CC(C)c1cc2c(cc1S(=O)(=O)O)[C@@]1(C)CCC[C@@](C)(C(=O)O)[C@@H]1CC2 [Ecabet sodium, (+)-(1R,4aS,10aR)-1,2,3,4,4a,9,10,10a-octahydro-1,4a-dimethyl-7-(1-methylethyl)-6-sulfo-1-phenanthrenecarboxylic acid 6-sodium salt pentahydrate]
Degree of Histological Injury [1, 9]: 2.3 ± 0.4 | Degree of Macroscopic Injury [1, 9]: 1.3 ± 0.2 | intestinal mucosal injury induced by acetic acid (observation) ([1]; versus physiological saline-treated rats (injury broadly observed)): hardly observed | Degree of Histological Injury [2, 10]: 4.6 ± 0.4 | Degree of Macroscopic Injury [2, 10]: 3.9 ± 0.3 | intestinal mucosal injury (observation) ([2]; TNBS-enteritis Fischer rats, versus physiological saline-treated rats): effectively inhibited | ulcerative lesion in the endoscopic finding ([3]; 2 weeks after the start of the administration): remarkably improved | recrudescence ([3]; 7 months after the start of the administration): has not been observed | pain and melena ([3]; granules 1.5 g orally twice a day plus 1.5 g through artificial anus twice a day, in a several days): disappeared | injury of the intestinal mucosa (endoscope) [4]: disappeared | Inflammation, Matts Grade, after the administration ([5]; Experiment 5, person, granules 1.5 g in saline 20 ml rectally twice a day, Matts Grade 3 before): Grade 2 | Area of inflammation after the administration ([5]; Experiment 5, person, granules 1.5 g rectally twice a day): decreased; also recorded: reduced | inflammation of the intestine tissue at the lesion (endoscope) ([5]; Experiment 5, 11 days after the start of the administration): remarkably improved | ulcer at the rectum after the administration (endoscope) ([5]; Experiment 6, person, granules 1.5 g in saline 20 ml rectally twice a day, 18 days, intractable ulcer before): turned into a red scar; also recorded: Improvement into a red | inflammation condition after the administration ([5]; Experiment 7, person, granules 1.5 g in saline 20 ml rectally twice a day, mild to moderate inflammation before): only a slight erythema was remained; also recorded: Improvement into a slight | inflammation of the lesion (endoscope) ([5]; Experiment 7, 12 days after the start of the administration): almost disappeared | acute hemorrhagic rectal ulcer outcome ([6]; Experiment 8, person, granules 1.5 g in water through the anus twice a day for about 1.5 month): cured without any cicatricial stenosis | acute hemorrhagic rectal ulcer outcome ([6]; Experiment 9, person, granules 1.5 g in water through the anus twice a day for about 2.5 months): cured without any cicatricial stenosis | acute hemorrhagic rectal ulcer outcome ([6]; Experiment 10, person, granules 1.5 g in water through the anus twice a day for about 1 month): cured without any cicatricial stenosis | ileum pouchitis and ulcer outcome [7]: cured without any cicatricial stenosis

CC(C)c1cc2c(cc1S(=O)(=O)[O-])[C@@]1(C)CCC[C@@](C)(C(=O)O)[C@@H]1CC2.[Na+] [Sulfodehydroabietic acid monosodium salt]
hygroscopicity [8]: less hygroscopic | stability [8]: more stable
